# From patent publication US20240366587A1, “USES OF A SOMATOSTATIN MODULATOR FOR THE TREATMENT OF DISEASE” (Crinetics Pharmaceuticals, Inc., priority 2021, published 2024)
# “And” between values parts separate entries of the source, which are not always exact repeats. Identical values can stand only once.
# Tests used:
# [1] = Phase 1 single-and-multiple-dose study in healthy volunteers: oral glucose tolerance test / safety; assay type: in vivo, human; settings: for glucose concentration by 2 hours post challenge / peak glucose concentration 1 hour post oral glucose challenge: one subject
# Experimental: A phase 1, randomized, double-blind, placebo-controlled, single and multiple ascending dose study was performed with oral Compound A at a single study center. Inclusion criteria included age 18 to 50 years; body mass index of 18-30 kg/m^2; and if female, postmenopausal by history or surgery. Exclusion criteria included presence of significant medical history.
# In the single-dose phase, participants were randomized 6:2 to Compound A (1.25, 2.5, 5, 10, 20, 40, and 60 mg) or placebo in 7 cohorts (S1 to S7). Cohorts comparing oral bioavailability of solution versus capsules and the effect of a standardized high-fat, high-calorie breakfast on oral bioavailability of the capsule formulation employed the 10 mg dose level. In the multiple-dose phase, participants were randomized 6:3 to once-daily oral Compound A-HCl capsules or placebo at doses of 5 mg for 7 days (M1, Day Last=Day 7), and 10, 20, and 30 mg daily for 10 days (M2, M3, M4, Day Last=Day 10).
# Safety assessments: Safety assessments included monitoring of clinical laboratory tests, cardiovascular safety monitoring (continuous Holter monitoring, ECG, telemetry), and physical examinations conducted at scheduled times throughout the study in the research units as well as post-discharge (up to 9 days after the single-dose, or up to 11 days after the last dose for multiple-dose cohorts). Adverse events and concomitant medications were recorded. Laboratory samples for clinical chemistry, hematology, coagulation tests, and urinalysis were collected under fasted conditions.
# In the multiple-dose cohorts, baseline serum TSH, ACTH, and prolactin samples were collected on Day −2, and an oral glucose tolerance test (OGTT) was conducted on Day −7 or earlier. These assessments were repeated on Day 8 (M1) or Day 11 (M2 and subsequent cohorts).
# Clinically significant hypoglycemia occurred in 1 subject in Cohort M3 (Compound A-HCl−10 days at 20 mg/day) at 2 and at 3 hours post-glucose challenge, and in 1 subject in Cohort M4 (Compound A-HCl−10 days at 30 mg/day) at 3 hours post-glucose challenge at the baseline assessment (Day −7).
# IGF-1 = test: Phase 2 clinical trials of acromegaly patients previously treated with LA-SRLs: steady state IGF-1 change by dose; assay type: in vivo, human; settings: baseline = IGF-1 at last LA-SRL injection
# Description: The switch to Compound A-monohydrochloride occurred 4 weeks after last LA-SRL injection.
# [2] = Cohort M2 (10 mg/day, 10 days), monohydrochloride
# [3] = Cohort M3 (20 mg/day, 10 days), monohydrochloride
smiles,measurement,setting,value
"Cl.N#Cc1cccc(-c2ccc3ncc(-c4cc(F)cc(F)c4)c(N4CCC(N)CC4)c3c2)c1O [Compound A-HCl, 3-[4-(4-amino-piperidin-1-yl)-3-(3,5-difluoro-phenyl)-quinolin-6-yl]-2-hydroxy-benzonitrile monohydrochloride]","Glucose AUC (0-3 hr) Difference (SE), oral glucose tolerance test","[1]; healthy volunteers, 7 days - 5 mg/day, Day −7 vs day after last dose",3.8 (4.00) h*mmol/L
same,"Glucose AUC (0-3 hr) Difference (SE), oral glucose tolerance test","[1]; healthy volunteers, 10 days - 10 mg/day",2.4 (3.19) h*mmol/L
same,"Glucose AUC (0-3 hr) Difference (SE), oral glucose tolerance test","[1]; healthy volunteers, 10 days - 20 mg/day",5.1 (3.12) h*mmol/L
same,"Glucose AUC (0-3 hr) Difference (SE), oral glucose tolerance test","[1]; healthy volunteers, 10 days - 30 mg/day, monohydrochloride",3.2 h*mmol/L and 3.2 (1.34) h*mmol/L
same,change in fasting plasma glucose,"[1]; healthy volunteers, multiple dosing up to 30 mg",wasn't significantly changed
same,treatment emergent adverse events of hyperglycemia,"[1]; healthy volunteers, repeated daily dosing 5-30 mg, OGTT after 10 days of dosing",two treatment emergent adverse effects (TEAEs) of asymptomatic hyperglycemia occurred
same,glucose concentration by 2 hours post challenge,[1]; [2],77 mg/dL and 4.3 mmol/L
same,peak glucose concentration 1 hour post oral glucose challenge,[1]; [2],12.4 mmol/L and 223 mg/dL
same,glucose concentration by 2 hours post challenge,[1]; [3],5.8 mmol/L and 104 mg/dL
same,peak glucose concentration 1 hour post oral glucose challenge,[1]; [3],12.2 mmol/L and 220 mg/dL
same,steady state IGF-1 change from baseline,IGF-1; 10 and 20 mg per day,IGF-1 levels that were above baseline
same,steady state IGF-1 change from baseline,IGF-1; 30/day and 40 mg/day,changes from baseline of near zero
